Reference: ChEMBL document CHEMBL4138123, “Design, synthesis and biological evaluation of novel pyrazolochalcones as potential modulators of PI3K/Akt/mTOR pathway and inducers of apoptosis in breast cancer cells” (Eur J Med Chem, 2017)

Columns and labels:
Format in all cases: functional
NCI-H322M [1] = assay: Cytotoxicity against human NCI-H322M cells assessed as cell growth at 100 uM after 48 hrs by sulforhodamine B assay relative to control; details: read-out: Activity
NCI-H460 [2] = assay: Cytotoxicity against human NCI-H460 cells assessed as cell growth at 100 uM after 48 hrs by sulforhodamine B assay relative to control; details: NCI-H460, 48 h, read-out: Activity
TK-10 = assay: Cytotoxicity against human TK10 cells assessed as cell growth at 10 uM after 48 hrs by sulforhodamine B assay relative to control; details: TK-10, 48 h, read-out: Activity
HOP-62 [3] = assay: Cytotoxicity against human HOP62 cells assessed as cell growth at 100 uM after 48 hrs by sulforhodamine B assay relative to control; details: HOP-62, 48 h, read-out: Activity
A498 [4] = assay: Cytotoxicity against human A498 cells assessed as cell growth at 10 uM after 48 hrs by sulforhodamine B assay relative to control; details: A498, 48 h, read-out: Activity
HCT-15 [5] = assay: Cytotoxicity against human HCT15 cells assessed as cell growth at 10 uM after 48 hrs by sulforhodamine B assay relative to control; details: HCT-15, 48 h, read-out: Activity
A498 [6] = assay: Cytotoxicity against human A498 cells assessed as cell growth at 1 uM after 48 hrs by sulforhodamine B assay relative to control; details: A498, 48 h, read-out: Activity
PC-3 = assay: Cytotoxicity against human PC3 cells assessed as cell growth at 1 uM after 48 hrs by sulforhodamine B assay relative to control; details: PC-3, 48 h, read-out: Activity
SK-MEL-28 [7] = assay: Cytotoxicity against human SK-MEL-28 cells assessed as cell growth at 0.1 uM after 48 hrs by sulforhodamine B assay relative to control; details: SK-MEL-28, 48 h, read-out: Activity
RXF 393 = assay: Cytotoxicity against human RXF393 cells assessed as growth inhibition after 48 hrs by sulforhodamine B assay; details: RXF 393, 48 h
SK-MEL-28 [8] = assay: Cytotoxicity against human SK-MEL-28 cells assessed as cell growth at 10 uM after 48 hrs by sulforhodamine B assay relative to control; details: SK-MEL-28, 48 h, read-out: Activity
UACC-257 [9] = assay: Cytotoxicity against human UACC257 cells assessed as cell growth at 100 uM after 48 hrs by sulforhodamine B assay relative to control; details: UACC-257, 48 h, read-out: Activity
OVCAR-5 = assay: Cytotoxicity against human OVCAR5 cells assessed as cell growth at 0.01 uM after 48 hrs by sulforhodamine B assay relative to control; details: OVCAR-5, 48 h, read-out: Activity
HCT-116 = assay: Cytotoxicity against human HCT116 cells assessed as growth inhibition after 48 hrs by sulforhodamine B assay; details: HCT-116, 48 h
HL-60(TB) = assay: Cytotoxicity against human HL-60(TB) cells assessed as cell growth at 10 uM after 48 hrs by sulforhodamine B assay relative to control; details: HL-60, 48 h, read-out: Activity
HT-29 = assay: Cytotoxicity against human HT-29 cells assessed as cell growth at 0.1 uM after 48 hrs by sulforhodamine B assay relative to control; details: HT-29, 48 h, read-out: Activity
SN12C = assay: Cytotoxicity against human SN12C cells assessed as cell growth at 1 uM after 48 hrs by sulforhodamine B assay relative to control; details: read-out: Activity
NCI-H460 [10] = assay: Cytotoxicity against human NCI-H460 cells assessed as cell growth at 0.01 uM after 48 hrs by sulforhodamine B assay relative to control; details: NCI-H460, 48 h, read-out: Activity
NCI-H322M [11] = assay: Cytotoxicity against human NCI-H322M cells assessed as cell growth at 0.1 uM after 48 hrs by sulforhodamine B assay relative to control; details: read-out: Activity
UO-31 = assay: Cytotoxicity against human UO31 cells assessed as cell growth at 0.1 uM after 48 hrs by sulforhodamine B assay relative to control; details: UO-31, 48 h, read-out: Activity
MDA-MB-468 = assay: Cytotoxicity against human MDA-MB-468 cells assessed as growth inhibition after 48 hrs by sulforhodamine B assay; details: MDA-MB-468, 48 h
DU-145 = assay: Cytotoxicity against human DU145 cells assessed as cell growth at 10 uM after 48 hrs by sulforhodamine B assay relative to control; details: DU-145, 48 h, read-out: Activity
MCF7 = assay: Cytotoxicity against human MCF7 cells assessed as cell growth at 0.01 uM after 48 hrs by sulforhodamine B assay relative to control; details: MCF7, 48 h, read-out: Activity
SF-268 = assay: Cytotoxicity against human SF268 cells assessed as cell growth at 0.01 uM after 48 hrs by sulforhodamine B assay relative to control; details: SF-268, 48 h, read-out: Activity
NCI-H522 = assay: Cytotoxicity against human NCI-H522 cells assessed as growth inhibition after 48 hrs by sulforhodamine B assay; details: NCI-H522, 48 h
SR = assay: Cytotoxicity against human SR cells assessed as cell growth at 0.1 uM after 48 hrs by sulforhodamine B assay relative to control; details: read-out: Activity
RPMI-8226 = assay: Cytotoxicity against human RPMI8226 cells assessed as cell growth at 10 uM after 48 hrs by sulforhodamine B assay relative to control; details: RPMI-8226, 48 h, read-out: Activity
HOP-62 [12] = assay: Cytotoxicity against human HOP62 cells assessed as cell growth at 0.01 uM after 48 hrs by sulforhodamine B assay relative to control; details: HOP-62, 48 h, read-out: Activity
Hs-578T = assay: Cytotoxicity against human Hs 578T cells assessed as cell growth at 1 uM after 48 hrs by sulforhodamine B assay relative to control; details: read-out: Activity
MOLT-4 = assay: Cytotoxicity against human MOLT4 cells assessed as cell growth at 100 uM after 48 hrs by sulforhodamine B assay relative to control; details: MOLT-4, 48 h, read-out: Activity
COLO 205 = assay: Cytotoxicity against human COLO205 cells assessed as growth inhibition after 48 hrs by sulforhodamine B assay; details: COLO 205, 48 h
KM12 = assay: Cytotoxicity against human KM12 cells assessed as cell growth at 0.01 uM after 48 hrs by sulforhodamine B assay relative to control; details: KM12, 48 h, read-out: Activity
UACC-62 = assay: Cytotoxicity against human UACC62 cells assessed as cell growth at 0.01 uM after 48 hrs by sulforhodamine B assay relative to control; details: UACC-62, 48 h, read-out: Activity
HCT-15 [13] = assay: Cytotoxicity against human HCT15 cells assessed as cell growth at 0.1 uM after 48 hrs by sulforhodamine B assay relative to control; details: HCT-15, 48 h, read-out: Activity
UACC-257 [14] = assay: Cytotoxicity against human UACC257 cells assessed as cell growth at 10 uM after 48 hrs by sulforhodamine B assay relative to control; details: UACC-257, 48 h, read-out: Activity
SK-MEL-5 = assay: Cytotoxicity against human SK-MEL-5 cells assessed as cell growth at 10 uM after 48 hrs by sulforhodamine B assay relative to control; details: SK-MEL-5, 48 h, read-out: Activity

## COc1cc(C(=O)/C=C/c2cc(-c3ccc4c(c3)OCO4)n[nH]2)cc(OC)c1OC
NCI-H322M [1]
  growth at 100 µM: -95%
NCI-H460 [2]
  growth at 100 µM: -78%
TK-10
  growth at 10 µM: -18%
HOP-62 [3]
  growth at 100 µM: -91%
A498 [4]
  growth at 10 µM: -39%
HCT-15 [5]
  growth at 10 µM: -16%
A498 [6]
  growth at 1 µM: 79%
PC-3
  growth at 1 µM: 71%
SK-MEL-28 [7]
  growth at 0.1 µM: 99%
RXF 393
  GI50: 1.31 µM
  LC50 (concentration killing 50% of cells): 6.59 µM
  TGI: 2.94 µM
SK-MEL-28 [8]
  growth at 10 µM: -56%
UACC-257 [9]
  growth at 100 µM: -97%
OVCAR-5
  growth at 0.01 µM: 98%
HCT-116
  GI50: 1.9 µM
  LC50: > 100 µM
  TGI: 4.63 µM
HL-60(TB)
  growth at 10 µM: -20%
HT-29
  growth at 0.1 µM: 97%
SN12C
  growth at 1 µM: 90%
NCI-H460 [10]
  growth at 0.01 µM: 99%
NCI-H322M [11]
  growth at 0.1 µM: 94%
UO-31
  growth at 0.1 µM: 82%
MDA-MB-468
  GI50: 1.4 µM
  LC50: 8.78 µM
  TGI: 3.5 µM
DU-145
  growth at 10 µM: -4%
MCF7
  growth at 0.01 µM: 89%
SF-268
  growth at 0.01 µM: 96%
NCI-H522
  GI50: 1.59 µM
  LC50: 7.3 µM
  TGI: 3.41 µM
SR
  growth at 0.1 µM: 94%
RPMI-8226
  growth at 10 µM: -48%
HOP-62 [12]
  growth at 0.01 µM: 100%
Hs-578T
  growth at 1 µM: 90%
MOLT-4
  growth at 100 µM: -13%
COLO 205
  GI50: 2.08 µM
  LC50: 12.6 µM
  TGI: 4.66 µM
KM12
  growth at 0.01 µM: 97%
UACC-62
  growth at 0.01 µM: 96%
HCT-15 [13]
  growth at 0.1 µM: 101%
UACC-257 [14]
  growth at 10 µM: -2%
SK-MEL-5
  growth at 10 µM: 14%

## COc1cc2c(cc1OC)C(=O)/C(=C/c1cc(-c3ccc4c(c3)OCO4)n[nH]1)C2
NCI-H322M [1]
  growth at 100 µM: -91%
NCI-H460 [2]
  growth at 100 µM: -67%
TK-10
  growth at 10 µM: -95%
HOP-62 [3]
  growth at 100 µM: -92%
A498 [4]
  growth at 10 µM: -84%
HCT-15 [5]
  growth at 10 µM: -69%
A498 [6]
  growth at 1 µM: 69%
PC-3
  growth at 1 µM: 65%
SK-MEL-28 [7]
  growth at 0.1 µM: 101%
RXF 393
  GI50: 1.54 µM
  LC50 (concentration killing 50% of cells): 6.62 µM
  TGI: 3.19 µM
SK-MEL-28 [8]
  growth at 10 µM: -92%
UACC-257 [9]
  growth at 100 µM: -95%
OVCAR-5
  growth at 0.01 µM: 102%
HCT-116
  GI50: 1.03 µM
  LC50: 6.31 µM
  TGI: 2.54 µM
HL-60(TB)
  growth at 10 µM: -29%
HT-29
  growth at 0.1 µM: 103%
SN12C
  growth at 1 µM: 87%
NCI-H460 [10]
  growth at 0.01 µM: 99%
NCI-H322M [11]
  growth at 0.1 µM: 92%
UO-31
  growth at 0.1 µM: 85%
MDA-MB-468
  GI50: 1.07 µM
  LC50: 5.44 µM
  TGI: 2.41 µM
DU-145
  growth at 10 µM: -92%
MCF7
  growth at 0.01 µM: 96%
SF-268
  growth at 0.01 µM: 95%
NCI-H522
  GI50: 0.25 µM
  LC50: 3.92 µM
  TGI: 0.871 µM
SR
  growth at 0.1 µM: 98%
RPMI-8226
  growth at 10 µM: -59%
HOP-62 [12]
  growth at 0.01 µM: 92%
Hs-578T
  growth at 1 µM: 92%
MOLT-4
  growth at 100 µM: -17%
COLO 205
  GI50: 1.7 µM
  LC50: 5.68 µM
  TGI: 3.11 µM
KM12
  growth at 0.01 µM: 100%
UACC-62
  growth at 0.01 µM: 100%
HCT-15 [13]
  growth at 0.1 µM: 93%
UACC-257 [14]
  growth at 10 µM: -96%
SK-MEL-5
  growth at 10 µM: -98%
